The text below walks through data of publication PMC8559926, “Design, synthesis and biological evaluation of N-oxide derivatives with potent in vivo antileishmanial activity” (PLoS ONE, 2021).

“And” between values parts separate entries of the source, which are not always exact repeats. Identical values can stand only once. Like-named read-outs stand apart in the source and are kept apart here. Bounds are passed on as bounds.

Series [1] in a line: Quantification of nitrite by the Griess reaction (NO release). The note with it: compounds at 10^-4 M, 5 mM of L-Cys (1:50), 1 h, 37°C. How it is done: The levels of nitrite resulting from the oxidation of NO in the aqueous medium were quantified through the Griess reaction after incubation with an excess of L-cysteine (1:50) according to previously published methods. The experiments were performed in triplicate and repeated three times on different days. […] The results were expressed as a percentage of nitrite (% NO2^−; mol/mol). Statistical analysis was carried out using ANOVA followed by Tukey’s Multiple Comparison Test at a significance level of p < 0.05.
The ability of all synthesized compounds (4a-x) and (14a-g) to release NO was evaluated by indirect determination of NO2^− production. The compounds at 10^−4 M were incubated for 1 h at 37°C in the presence of L-cysteine (1:50) and the produced NO2^− was determined through Griess reaction (Table 1).

The test system of series [2] is L. infantum intracellular amastigotes. In words: Anti-amastigote activity in infected murine peritoneal macrophages. The class given is cell-based. The note with it: Leishmania infantum, Peritoneal macrophage, 24 h, read-out: EC50 - Effective Concentration that kills 50% of L. infantum amastigote forms. On the procedure: The antileishmanial activity against L. infantum intracellular amastigotes, according to the following methodology. […] Were used infected macrophages as negative control and amphotericin B as the positive control.
After incubation, cells were fixed with methanol and Giemsa stained. The effective concentration to 50% amastigotes death (EC) was obtained by counting 100 macrophages in duplicate, in two independent experiments. The values were obtained by non-linear regression on Bioestat® software, and results were expressed in mean ± standard deviation.

For series [3], the system named is L. infantum. In words: In vivo parasite load (LDU index) in L. infantum-infected BALB/c mice. Conditions: oral, twice a day for five days; for reduction of parasite burden in liver and spleen: 7.7 mg/kg/day. On the procedure: To evaluate the in vivo antileishmanial efficacy of compound 4f, male BALB/c mice, 20 ± 4 g, 6 weeks-old (CEMIB-UNICAMP) were intraperitoneally inoculated with 100 μL (1x10^8 parasites) of infective promastigotes of L. infantum (MHOM/MA/67/ITMAP-263) at the stationary phase. After nine days post-infection, the animals were treated by oral gavage (100 μL per dose) twice daily for 5 days with a 12h interval between doses according to the dosages described below, and euthanized. […] Work solutions were daily prepared in PBS. Negative controls correspond to infected and non-treated mice. As a positive control, a group of mice received 7.7 mg/kg/day of miltefosine, and a group of uninfected and untreated mice (healthy animals) was used for the analysis. The compound and miltefosine were orally administered twice a day for five days. After treatment, the animals were euthanized and the treatment efficacy was assessed by measuring the parasite burden of the infected animals using the LDU index.
LDU index. After the euthanasia, mice´s liver and spleen were collected for parasite quantification. Tissues impression onto microscopy slides were made, followed by Giemsa-staining and examining under optical microscopy. The corresponding number of amastigotes per 1,000 nucleated cells/organ weight was expressed as LDU index according to Stauber (1958), Sousa-Batista (2018), and Kwofie (2019).

A short description of series [4]: Toxicity for mice: plasma biochemical markers. The class given is in vivo, BALB/c mice. Conditions: for plasma creatinine: any group; for plasma creatinine / plasma total bilirubin levels: end of treatment; for plasma levels of AST, ALP, ALT, and creatinine: treated vs healthy groups; for plasma total bilirubin levels: treated vs infected untreated mice. How it is done: Toxicity for mice assays. The blood was collected in heparinized tubes and immediately centrifuged at 700×g for 10 min at 25°C to obtain plasma. Plasma levels of aspartate (AST), and alanine (ALT) transferases, alkaline phosphatase (ALP), creatinine, urea, and total bilirubin were determined at the end of treatment using commercial kits (Labtest Diagnóstica S.A., Brazil). The assays were performed according to Velasquez et al. (2017) and the data are expressed as average ± SEM. The statistical differences between groups were evaluated using a one-way analysis of variance, followed by the Student-Newman-Keuls multiple comparison test using GraphPad Prism software. Differences were considered significant when P values were […].

Series [5] deals with T1, recombinant Leishmania cysteine protease LmCPB2.8ΔCTE (CPB) (Leishmania mexicana, UniProt P36400).
T1 construct: The ORF that codes for the Leishmania mexicana CPB, lacking the C terminal extension (CPB2.8ΔCTE); made in house; host or cells: Pichia pastoris X-33
In words: Enzymatic inhibition of recombinant CPB (Z-FR-AMC substrate). The class given is biochemical. On the procedure:
The concentration of the active recombinant CPB expressed in Pichia pastoris supernatant was determined by active site titration with N-(trans-Epoxysuccinyl)-L-leucine 4-guanidinobutylamide E-64 (CalBiochem) that was found 1 μM. The active enzyme represented about 80% of the total recombinant enzyme.
Compounds were dissolved in DMSO to a final concentration of 20 μM. The assays were performed in dark 96 well-plates, containing 200 μL of 100 mM sodium acetate buffer (pH 5.5), 200 mM NaCl, 0.01% Triton-X100, 2 nM enzyme, various concentrations of inhibitor, and 5 μM of the substrate Z-FR-AMC (Calbiochem). The final concentration of DMSO was 1% (v/v). The enzyme was pre-incubated at 30°C for 2 minutes before the inhibitor was added, waited 2 minutes and after this incubation, the reaction was started by the addition of the substrate, Z-FR-AMC. The fluorescence was monitored at 380 nm excitation and 460 nm emission filters for 2 minutes at 30°C in an Infinite 200 PRO microplate reader (Tecan, Männedorf, Switzerland). The residual activity was measured by the ratio between enzyme + substrate and enzyme + inhibitor + substrate. […] Results were expressed in mean ± standard deviation of two independent replicates using Bioestat Software.

For series [6], the target named is T1, recombinant Leishmania cysteine protease LmCPB2.8ΔCTE (CPB). The note with it: read-out: IC50 - Inhibition of CPB (rCPB2.8); prototype/reference compounds; cited from earlier work.
In series [7] the test system is L. infantum intracellular amastigotes. Also noted: method as in PMID 24913171. The note with it: prototype/reference compounds, cited from earlier work.
Series [8] concerns murine peritoneal macrophages. Set-up: method as in PMID 24913171. Conditions: prototype/reference compounds; cited from earlier work.
The test system of series [9] is L. infantum. Set-up: method as in PMID 28866421. The note with it: L. infantum-infected hamsters, cited from earlier work.

T1 sequence (P36400 126-341, stated change not applied): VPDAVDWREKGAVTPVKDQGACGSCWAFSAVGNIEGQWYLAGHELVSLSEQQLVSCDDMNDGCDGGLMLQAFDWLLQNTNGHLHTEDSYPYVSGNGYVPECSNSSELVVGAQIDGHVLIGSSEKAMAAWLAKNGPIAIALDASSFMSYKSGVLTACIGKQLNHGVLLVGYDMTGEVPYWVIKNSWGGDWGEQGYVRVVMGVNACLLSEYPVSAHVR

For orientation: IC50 means the concentration needed to halve the response being measured. On to `NC(=O)N/N=C/c1ccc(Oc2no[n+]([O-])c2-c2ccccc2)cc1` [Compound 4f, (E)-4-(4-((2-carbamoylhydrazono)methyl)phenoxy)-3-phenyl-1,2,5-oxadiazole 2-oxide], for which the “% NO2- (mol/mol)” value in series [1] stood at 9.1 ± 0.7 %. Further, the EC50 in series [2] worked out at 3.6 ± 0.1 µM. Also, the parasite reduction with L. infantum [3] (2.56 mg/kg/day) came out at 77%. Moreover, the “reduction of parasite burden in liver and spleen” value in the series on L. infantum [3] is 90% and ~ 90%. Besides, in [4], the plasma creatinine entry is “no alterations”; the “plasma levels of AST, ALP, ALT, and creatinine” value was “similar”; the “plasma total bilirubin levels” value is “no significant alterations”. The “side effect (biochemical markers)” value in [4] (up to the highest dose 7.7 mg/kg/day) was “without causing any evident side effect”. Also, in series [5], the IC50 stood at 4.5 ± 0.1 µM.
One may read the melting point as the temperature of the solid-liquid transition. `NC(=O)c1c(COc2ccc(/C=N/NC(=O)c3ccc(O)cc3)cc2)no[n+]1[O-]` [Compound 4i, (E)-3-carbamoyl-4-((4-((2-(4-hydroxybenzoyl)hydrazono)methyl)phenoxy)methyl)-1,2,5-oxadiazole 2-oxide] registered a melting point of 201 to 203 °C. Besides, the “% NO2- (mol/mol)” value in series [1] is 12.3 ± 0.9 %. In addition, the EC50 in series [2] is above 10 µM. Further, the IC50 in series [5] worked out at 5.7 ± 0.4 µM.
`NC(=O)c1c(COc2ccc(/C=N/NC(=O)c3ccc(N)cc3)cc2)no[n+]1[O-]` [Compound 4j, (E)-4-((4-((2-(4-aminobenzoyl)hydrazono)methyl)phenoxy)methyl)-3-carbamoyl-1,2,5-oxadiazole 2-oxide] gave a melting point of 209 to 214 °C. Further, the “% NO2- (mol/mol)” value in series [1] was 12.7 ± 0.8 %. Moreover, the EC50 in series [2] was above 10 µM. In series [5], the IC50 stood at 11.1 ± 0.1 µM.
The like results for `NC(=O)N/N=C/c1ccc(OCc2no[n+]([O-])c2C(N)=O)cc1` [Compound 4n, (E)-3-carbamoyl-4-((4-((2-carbamoylhydrazono)methyl)phenoxy)methyl)-1,2,5-oxadiazole 2-oxide] were, in that order, 228 to 230 °C, 12.0 ± 1.4 %, above 10 µM and 13.7 ± 1.8 µM.
`NC(=O)c1c(COc2ccc(/C=N/NC(N)=S)cc2)no[n+]1[O-]` [Compound 4o, (E)-4-((4-((2-carbamothioylhydrazono)methyl)phenoxy)methyl)-3-carbamoyl-1,2,5-oxadiazole 2-oxide] registered a melting point of 232 to 234 °C. Moreover, the “% NO2- (mol/mol)” value in series [1] is given as 11.8 ± 1.2 %. Further, the EC50 in series [2] was above 10 µM. Further, the IC50 in series [5] was above 20 µM.
As to `O=C(N/N=C/c1ccc(Oc2no[n+]([O-])c2S(=O)(=O)c2ccccc2)cc1)c1cccc(O)c1` [Lapdesf14e, (E)-4-(4-((2-(3-hydroxybenzoyl)hydrazono)methyl)phenoxy)-3-(phenylsulfonyl)-1,2,5-oxadiazole 2-oxide], in [6], the half-inhibitory concentration (IC50) was 3.1 ± 0.4 µM. Moreover, the “% NO2- (mol/mol)” value in series [1] was 26% and 26.0 ± 1.6 %. For the same compound, in [7], the “SI - Selective Index (CC50/EC50)” value is listed as 66.4. Besides, in [7] (read-out: EC50 L. infantum amastigote forms), the EC50 was 3.1 ± 0.1 µM. The CC50 in series [8] is 208.3 ± 0.2 µM. Besides, the “decrease of parasite load” value in the series on L. infantum [9] (15 days, intraperitoneal) is reported as 50%. For the same compound, in the series with L. infantum [9], the “reduction of parasite load in the liver” value was 54.2%, the “reduction of parasite load in the spleen” value is on record as 49.9% and the toxic effects result is listed as “without toxic effects”.
For `CCCCCCCCCCCCCCCCOP(=O)([O-])OCC[N+](C)(C)C` [miltefosine, reference compound], the “reduction of parasite burden in liver and spleen” value in the series with L. infantum [3] is reported as ~ 90%. In addition, in [4], the plasma creatinine result is “no alterations”; the “plasma levels of AST, ALP, ALT, and creatinine” value was “similar”; the “plasma total bilirubin levels” value is “no significant alterations”.
